Values quoted from earlier work as cited in patent US20260345483A1, “Pharmaceutical Formulation” (Klaria Pharma Holding AB, priority 2018, published 2026).

Experiments:
[1] = aqueous solution, ref [4]
[2] = subcutaneous injection compared with intramuscular injection, ref [3]
[3] = tested on: porcine buccal epithelium; conditions: enhancer concentration, ref [6]

pH of acceptable adrenaline stability [1] | pH of optimal adrenaline stability [1] | time of peak plasma concentration [2] | enhanced permeability with porcine buccal epithelium [3] | SMILES
< 5.5 | 3-4 | significantly delayed |  | CNCC(O)c1ccc(O)c(O)c1 (stereo not shown) [adrenaline]
 |  |  | 1-10% | CCCCCCCC/C=C\CCCCCCCC(=O)O [Oleic acid, oleic acid]
